According to US20070049593A1 (priority 2004, published 2007):
Where a name gives a salt, the structure may show the parent alone.

molecular target: T1, HCV polymerase (Hepatitis C virus genotype 1b, UniProt P26663); test: biochemical; design: species or system HCV BK strain
T1 construct: a region encoding NS5B (J Virol 1991 March, 65(3), 1105-13, 544 amino acids after deletion of 47 amino acids on the C-terminal); 6xHis (C); made in house; host or cells: Escherichia coli
How it was run: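 His-tagged NS5B (BK strain, 47-aa C-terminal deletion, E. coli-expressed) at 0.5 μg/ml copied 5 μg/ml run-off RNA bearing the HCV 3′ UTR with 2 μM UTP plus [3H]UTP, 50 μM ATP/GTP, in pH 7.5 Tris with 5 mM MgCl2, 25 °C, 90 min. TCA-precipitated RNA was counted and IC50 calculated.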

T1 sequence (P26663 2420-2963): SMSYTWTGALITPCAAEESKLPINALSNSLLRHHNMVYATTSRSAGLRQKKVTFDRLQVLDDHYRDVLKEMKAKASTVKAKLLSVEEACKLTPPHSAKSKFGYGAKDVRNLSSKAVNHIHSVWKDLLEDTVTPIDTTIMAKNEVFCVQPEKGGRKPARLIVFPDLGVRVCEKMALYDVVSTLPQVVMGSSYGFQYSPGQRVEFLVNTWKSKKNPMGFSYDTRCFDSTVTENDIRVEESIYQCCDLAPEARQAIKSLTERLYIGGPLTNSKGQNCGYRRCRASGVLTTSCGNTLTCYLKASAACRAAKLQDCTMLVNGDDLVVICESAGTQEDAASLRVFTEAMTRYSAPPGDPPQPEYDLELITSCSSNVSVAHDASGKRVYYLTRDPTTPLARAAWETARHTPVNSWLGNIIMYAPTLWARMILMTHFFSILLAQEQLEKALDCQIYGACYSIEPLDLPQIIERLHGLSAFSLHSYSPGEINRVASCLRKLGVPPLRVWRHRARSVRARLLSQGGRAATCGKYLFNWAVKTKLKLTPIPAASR

`CN(C)CCN1CCn2c(c(C3CCCCC3)c3ccc(C(=O)O)cc32)-c2ccc(OCc3cccc(N4CCCC4=O)c3)cc21` [Example 1-585, 13-cyclohexyl-5-(2-dimethylaminoethyl)-3-[3-(2-oxopyrrolidin-1-yl)benzyloxy]-6,7-dihydro-5H-benzo[5,6][1,4]diazepino[7,1-a]indole-10-carboxylic acid trihydrochloride] and `CN(C)CCN1CCn2c(c(C3CCCCC3)c3ccc(C(=O)O)cc32)-c2ccc(OCc3cccc(C(=O)O)c3)cc21` [Example 1-586, 3-(3-carboxybenzyloxy)-13-cyclohexyl-5-(2-dimethylaminoethyl)-6,7-dihydro-5H-benzo[5,6][1,4]diazepino[7,1-a]indole-10-carboxylic acid dihydrochloride] cannot be ordered by IC50: under 100 nM for the first, under 100 nM for the second.

`CN(C)CCN1CCn2c(c(C3CCCCC3)c3ccc(C(=O)O)cc32)-c2ccc(OCc3cccc(C(=O)N(C)C)c3)cc21` [Example 1-587, 13-cyclohexyl-5-(2-dimethylaminoethyl)-3-(3-dimethylcarbamoylbenzyloxy)-6,7-dihydro-5H-benzo[5,6][1,4]diazepino[7,1-a]indole-10-carboxylic acid dihydrochloride] and `CNC(=O)c1cccc(COc2ccc3c(c2)N(CCN(C)C)CCn2c-3c(C3CCCCC3)c3ccc(C(=O)O)cc32)c1` [Example 1-590, 13-cyclohexyl-5-(2-dimethylaminoethyl)-3-(3-methylcarbamoylbenzyloxy)-6,7-dihydro-5H-benzo[5,6][1,4]diazepino[7,1-a]indole-10-carboxylic acid dihydrochloride] cannot be ordered by IC50: under 100 nM for the first, under 100 nM for the second.

`Cc1ccc2c(c1)N(CCc1nc(C)cs1)CCn1c-2c(C2CCCCC2)c2ccc(C(=O)O)cc21` [Example 1-588, 13-cyclohexyl-3-methyl-5-[2-(4-methylthiazol-2-yl)ethyl]-6,7-dihydro-5H-benzo[5,6][1,4]diazepino[7,1-a]indole-10-carboxylic acid] and `Cc1cccc(COc2ccc3c(c2)N(CCN(C)C)CCn2c-3c(C3CCCCC3)c3ccc(C(=O)O)cc32)n1` [Example 1-589, 13-cyclohexyl-5-(2-dimethylaminoethyl)-3-(6-methylpyridin-2-ylmethoxy)-6,7-dihydro-5H-benzo[5,6][1,4]diazepino[7,1-a]indole-10-carboxylic acid trihydrochloride] cannot be ordered by IC50: under 100 nM for the first, under 100 nM for the second.

`CN(C)CCN1CCn2c(c(C3CCCCC3)c3ccc(C(=O)O)cc32)-c2ccc(OCc3cccc(N(C)C)c3)cc21` [Example 1-591, 13-cyclohexyl-3-(3-dimethylaminobenzyloxy)-5-(2-dimethylaminoethyl)-6,7-dihydro-5H-benzo[5,6][1,4]diazepino[7,1-a]indole-10-carboxylic acid trihydrochloride] and `CN1CCn2c(c(C3CCCCC3)c3ccc(C(=O)O)cc32)-c2ccc(OCc3ccccc3)cc21` [Example 1-593, 3-benzyloxy-13-cyclohexyl-5-methyl-6,7-dihydro-5H-benzo[5,6][1,4]diazepino[7,1-a]indole-10-carboxylic acid] cannot be ordered by IC50: under 100 nM for the first, under 100 nM for the second.

`CCOc1ccc2c(c1)N(C)CCn1c-2c(C2CCCCC2)c2ccc(C(=O)O)cc21` [Example 1-592, 13-cyclohexyl-3-ethoxy-5-methyl-6,7-dihydro-5H-benzo[5,6][1,4]diazepino[7,1-a]indole-10-carboxylic acid] and `COc1ccc2c(c1)N(C)CCn1c-2c(C2CCCCC2)c2ccc(C(=O)O)cc21` [Example 1-594, 13-cyclohexyl-3-methoxy-5-methyl-6,7-dihydro-5H-benzo[5,6][1,4]diazepino[7,1-a]indole-10-carboxylic acid] cannot be ordered by IC50: under 100 nM for the first, under 100 nM for the second.

`O=C(O)c1ccc2c(C3CCCCC3)c3n(c2c1)CCN(CCN1CCCCC1)c1cc(OCc2ccccn2)ccc1-3` [Example 1-595, 13-cyclohexyl-5-[2-(piperidin-1-yl)ethyl]-3-(pyridin-2-ylmethoxy)-6,7-dihydro-5H-benzo[5,6][1,4]diazepino[7,1-a]indole-10-carboxylic acid trihydrochloride] and `O=C(O)c1ccc2c(C3CCCCC3)c3n(c2c1)CCOc1cc(OCc2ccccc2)ccc1-3` [Example 2-3, 3-benzyloxy-12-cyclohexyl-6,7-dihydro-5-oxa-7a-azadibenzo[a,e]azulene-9-carboxylic acid] cannot be ordered by IC50: under 100 nM for the first, under 100 nM for the second.

`CCOc1ccc2c(c1)N(C)CCn1c-2c(C2CCCCC2)c2ccc(C(=O)NC(C)(C)C(=O)Nc3ccc(/C=C/C(=O)O)cc3)cc21` [Example 1-615, (E)-3-(4-{2-[(13-cyclohexyl-3-ethoxy-5-methyl-6,7-dihydro-5H-benzo[5,6][1,4]diazepino[7,1-a]indole-10-carbonyl)amino]-2-methylpropionylamino}phenyl)acrylic acid] and `CCOc1ccc2c(c1)N(C)CCn1c-2c(C2CCCCC2)c2ccc(C(=O)NC3(C(=O)Nc4cccc(/C=C/C(=O)O)c4)CCC3)cc21` [Example 1-616, (E)-3-[3-({1-[(13-cyclohexyl-3-ethoxy-5-methyl-6,7-dihydro-5H-benzo[5,6][1,4]diazepino[7,1-a]indole-10-carbonyl)amino]cyclobutanecarbonyl}amino)phenyl]acrylic acid] cannot be ordered by IC50: under 100 nM for the first, under 100 nM for the second.

`CCOc1ccc2c(c1)N(C)CCn1c-2c(C2CCCCC2)c2ccc(C(=O)NC3(C(=O)Nc4ccc(/C=C/C(=O)O)cc4OC)CCC3)cc21` [Example 1-617, (E)-3-[4-({1-[(13-cyclohexyl-3-ethoxy-5-methyl-6,7-dihydro-5H-benzo[5,6][1,4]diazepino[7,1-a]indole-10-carbonyl)amino]cyclobutanecarbonyl}amino)-3-methoxyphenyl]acrylic acid] and `CCOc1ccc2c(c1)N(C)CCn1c-2c(C2CCCCC2)c2ccc(C(=O)NC3(C(=O)Nc4ccc(OC)c(/C=C/C(=O)O)c4)CCC3)cc21` [Example 1-619, (E)-3-[5-({1-[(13-cyclohexyl-3-ethoxy-5-methyl-6,7-dihydro-5H-benzo[5,6][1,4]diazepino[7,1-a]indole-10-carbonyl)amino]cyclobutanecarbonyl}amino)-2-methoxyphenyl]acrylic acid] cannot be ordered by IC50: under 100 nM for the first, under 100 nM for the second.

`CCOc1ccc2c(c1)N(C)CCn1c-2c(C2CCCCC2)c2ccc(C(=O)NC3(C(=O)Nc4ccc(Cl)c(/C=C/C(=O)O)c4)CCC3)cc21` [Example 1-618, (E)-3-[2-chloro-5-({1-[(13-cyclohexyl-3-ethoxy-5-methyl-6,7-dihydro-5H-benzo[5,6][1,4]diazepino[7,1-a]indole-10-carbonyl)amino]cyclobutanecarbonyl}amino)phenyl]acrylic acid] and `CCOc1ccc2c(c1)N(C)CCn1c-2c(C2CCCCC2)c2ccc(C(=O)NC3(C(=O)Nc4ccc(C=CC(=O)O)c(Cl)c4)CCC3)cc21` [Example 1-623, (E)-3-[2-chloro-4-({1-[(13-cyclohexyl-3-ethoxy-5-methyl-6,7-dihydro-5H-benzo[5,6][1,4]diazepino[7,1-a]indole-10-carbonyl)amino]cyclobutanecarbonyl}amino)phenyl]acrylic acid] cannot be ordered by IC50: under 100 nM for the first, under 100 nM for the second.

`CCOc1ccc2c(c1)N(C)CCn1c-2c(C2CCCCC2)c2ccc(C(=O)NC3(C(=O)Nc4ccc(C)c(/C=C/C(=O)O)c4)CCC3)cc21` [Example 1-620, (E)-3-[5-({1-[(13-cyclohexyl-3-ethoxy-5-methyl-6,7-dihydro-5H-benzo[5,6][1,4]diazepino[7,1-a]indole-10-carbonyl)amino]cyclobutanecarbonyl}amino)-2-methylphenyl]acrylic acid] and `CCOc1ccc2c(c1)N(C)CCn1c-2c(C2CCCCC2)c2ccc(C(=O)NC3(C(=O)Nc4ccc(/C=C/C(=O)O)c(C)c4)CCC3)cc21` [Example 1-621, (E)-3-[4-({1-[(13-cyclohexyl-3-ethoxy-5-methyl-6,7-dihydro-5H-benzo[5,6][1,4]diazepino[7,1-a]indole-10-carbonyl)amino]cyclobutanecarbonyl}amino)-2-methylphenyl]acrylic acid] cannot be ordered by IC50: under 100 nM for the first, under 100 nM for the second.

`CCOc1ccc2c(c1)N(C)CCn1c-2c(C2CCCCC2)c2ccc(C(=O)NC3(C(=O)Nc4ccc(/C=C/C(=O)O)c(OC)c4)CCC3)cc21` [Example 1-622, (E)-3-[4-({1-[(13-cyclohexyl-3-ethoxy-5-methyl-6,7-dihydro-5H-benzo[5,6][1,4]diazepino[7,1-a]indole-10-carbonyl)amino]cyclobutanecarbonyl}amino)-2-methoxyphenyl]acrylic acid] and `O=C(O)c1ccc2c(C3CCCCC3)c3n(c2c1)CCOc1cc(OCc2cc(N4CCCC4=O)ccc2N2CCOCC2)ccc1-3` [Example 2-5, 12-cyclohexyl-3-[2-(morpholin-4-yl)-5-(2-oxopyrrolidin-1-yl)benzyloxy]-6,7-dihydro-5-oxa-7a-azadibenzo[a,e]azulene-9-carboxylic acid monohydrochloride] cannot be ordered by IC50: under 100 nM for the first, under 100 nM for the second.

Compared with `COc1ccc2c(c1)OCCn1c-2c(C2CCCCC2)c2ccc(C(=O)O)cc21` [Example 2-4, 12-cyclohexyl-3-methoxy-6,7-dihydro-5-oxa-7a-azadibenzo[a,e]azulene-9-carboxylic acid], `COc1ccc2c(c1)-c1c(C3CCCCC3)c3ccc(C(=O)O)cc3n1CCO2` [Example 2-6, 12-cyclohexyl-2-methoxy-6,7-dihydro-5-oxa-7a-azadibenzo[a,e]azulene-9-carboxylic acid] is higher in IC50: under 100 nM for the first, 100 to 1000 nM for the second.

`O=C(O)c1ccc2c(C3CCCCC3)c3n(c2c1)CCOc1cc(OCc2ccc(N4CCCC4=O)cc2N2CCOCC2)ccc1-3` [Example 2-9, 12-cyclohexyl-3-[2-(morpholin-4-yl)-4-(2-oxopyrrolidin-1-yl)benzyloxy]-6,7-dihydro-5-oxa-7a-azadibenzo[a,e]azulene-9-carboxylic acid] and `CC(C)(C)OC(=O)N1CCC(Oc2ccc3c(c2)OCCn2c-3c(C3CCCCC3)c3ccc(C(=O)O)cc32)CC1` [Example 2-10, 3-(1-tert-butoxycarbonylpiperidin-4-yloxy)-12-cyclohexyl-6,7-dihydro-5-oxa-7a-azadibenzo[a,e]azulene-9-carboxylic acid] cannot be ordered by IC50: under 100 nM for the first, under 100 nM for the second.
